# Data from PubChem BioAssay (NCI).
#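 Method: 48-hour compound exposure of cells in 96-well plates, five concentrations, linear interpolation of endpoints. TGI denotes the concentration required for complete inhibition of growth.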
# Key:
# Assay in all cases: NCI tumour cell line growth inhibition, 48 h
# HCT-15 colon = test system: HCT-15 colon
# 786-0 renal = test system: 786-0 renal
# MCF7 breast = test system: MCF7 breast
# HL-60(TB) leukemia = test system: HL-60(TB) leukemia
# MDA-MB-435 = test system: MDA-MB-435
# A549 NSCLC = test system: A549 NSCLC
# M14 melanoma = test system: M14 melanoma
# SK-MEL-5 melanoma = test system: SK-MEL-5 melanoma
# SK-MEL-28 melanoma = test system: SK-MEL-28 melanoma
# SW-620 colon = test system: SW-620 colon
# UACC-257 melanoma = test system: UACC-257 melanoma
# UO-31 renal = test system: UO-31 renal
# CCRF-CEM leukemia = test system: CCRF-CEM leukemia
# A498 renal = test system: A498 renal
# OVCAR-8 ovarian = test system: OVCAR-8 ovarian
# BT-549 breast = test system: BT-549 breast
# SR leukemia = test system: SR leukemia
# LOX IMVI melanoma = test system: LOX IMVI melanoma
# OVCAR-3 ovarian = test system: OVCAR-3 ovarian
# K-562 leukemia = test system: K-562 leukemia
Structure (SMILES),TGI (HCT-15 colon),TGI (786-0 renal),TGI (MCF7 breast),TGI (HL-60(TB) leukemia),TGI (MDA-MB-435),TGI (A549 NSCLC),TGI (M14 melanoma),TGI (SK-MEL-5 melanoma),TGI (SK-MEL-28 melanoma),TGI (SW-620 colon),TGI (UACC-257 melanoma),TGI (UO-31 renal),TGI (CCRF-CEM leukemia),TGI (A498 renal),TGI (OVCAR-8 ovarian),TGI (BT-549 breast),TGI (SR leukemia),TGI (LOX IMVI melanoma),TGI (OVCAR-3 ovarian),TGI (K-562 leukemia)
Cc1cccc2c1C(=O)[C@](C)([C@]1(C)Nc3cccc(C)c3C1=O)N2,> 100 µM,> 100 µM,> 100 µM,0.54 µM,35.7 µM,> 100 µM,> 100 µM,> 100 µM,> 100 µM,> 100 µM,> 100 µM,51.8 µM,48.3 µM,> 100 µM,72.8 µM,62.5 µM,93.5 µM,> 100 µM,83.3 µM,> 100 µM
c1ccc(C2=NCCN2)c(C2=NCCN2)c1,> 100 µM,> 100 µM,> 100 µM,> 100 µM,> 100 µM,> 100 µM,> 100 µM,> 100 µM,> 100 µM,> 100 µM,> 100 µM,> 100 µM,> 100 µM,> 100 µM,> 100 µM,> 100 µM,> 100 µM,> 100 µM,> 100 µM,> 100 µM
CCC(C(=O)C(=O)C(CC)P1(=O)OC(C)(C)CN1C(C)(C)C)P1(=O)OC(C)(C)CN1C(C)(C)C (stereo not drawn),> 100 µM,> 100 µM,> 100 µM,> 100 µM,> 100 µM,> 100 µM,> 100 µM,> 100 µM,> 100 µM,> 100 µM,> 100 µM,> 100 µM,> 100 µM,> 100 µM,> 100 µM,> 100 µM,> 100 µM,> 100 µM,> 100 µM,> 100 µM
Cc1occc1C(=S)Nc1ccc(Cl)c(C(=O)OC(C(C)C)C(C)C)c1,33.7 µM,30.9 µM,34 µM,29.8 µM,65.8 µM,31.8 µM,35.3 µM,32 µM,29.8 µM,46.2 µM,19.2 µM,17.5 µM,33 µM,27.8 µM,26.5 µM,34.6 µM,28 µM,26.3 µM,28.3 µM,
CC1CN=C(Nc2ccccc2)S1 (stereo not drawn),> 100 µM,> 100 µM,> 100 µM,> 100 µM,> 100 µM,> 100 µM,> 100 µM,> 100 µM,> 100 µM,> 100 µM,> 100 µM,> 100 µM,> 100 µM,> 100 µM,> 100 µM,> 100 µM,> 100 µM,> 100 µM,> 100 µM,> 100 µM
O=C(N/N=C/c1c(-c2ccccc2)no[n+]1[O-])N1CCOCC1,> 100 µM,> 100 µM,> 100 µM,> 100 µM,> 100 µM,> 100 µM,> 100 µM,> 100 µM,> 100 µM,> 100 µM,> 100 µM,> 100 µM,> 100 µM,> 100 µM,> 100 µM,> 100 µM,45.1 µM,> 100 µM,> 100 µM,> 100 µM
CCO/C=N\c1c(C#N)c(-c2ccc(Cl)cc2)cn1-c1ccc(C)cc1,> 100 µM,> 100 µM,> 100 µM,> 100 µM,> 100 µM,> 100 µM,> 100 µM,> 100 µM,> 100 µM,> 100 µM,> 100 µM,> 100 µM,> 100 µM,> 100 µM,> 100 µM,> 100 µM,> 100 µM,> 100 µM,> 100 µM,> 100 µM
Oc1cc2c3c(c1)CCCN3CCC2,> 10 µM,> 10 µM,> 10 µM,> 10 µM,> 10 µM,> 10 µM,> 10 µM,> 10 µM,> 10 µM,> 10 µM,> 10 µM,,> 10 µM,> 10 µM,> 10 µM,> 10 µM,> 10 µM,> 10 µM,> 10 µM,> 10 µM
Cc1c(S(=O)(=O)O)ccc(N=Nc2c(O)c(C(=O)O)cc3ccccc23)c1Cl,> 100 µM,> 100 µM,> 100 µM,> 100 µM,> 100 µM,> 100 µM,> 100 µM,> 100 µM,> 100 µM,> 100 µM,> 100 µM,> 100 µM,> 100 µM,> 100 µM,> 100 µM,> 100 µM,> 90.2 µM,> 100 µM,> 100 µM,> 100 µM
Cc1c(CCN2CCOCC2)c(N2CCOCC2)n2c(nc3ccccc32)c1C#N,> 10 µM,> 10 µM,> 10 µM,> 10 µM,> 10 µM,> 10 µM,> 10 µM,> 10 µM,> 10 µM,> 10 µM,> 10 µM,> 10 µM,> 10 µM,> 10 µM,> 10 µM,> 10 µM,> 10 µM,> 10 µM,> 10 µM,> 10 µM
Cc1ccc(N2C(=O)C=C(C3=C(O)C(=O)N(c4ccc(C)cc4)C3=O)C2=O)cc1,> 100 µM,> 100 µM,> 100 µM,> 100 µM,> 100 µM,> 100 µM,> 100 µM,> 100 µM,> 100 µM,> 100 µM,> 100 µM,> 100 µM,> 100 µM,> 100 µM,> 100 µM,> 100 µM,> 100 µM,> 100 µM,> 100 µM,> 100 µM
CCn1c(SCC(=O)N/N=C/c2ccccc2)nc2ccccc2c1=O,> 100 µM,41.7 µM,> 46.4 µM,> 100 µM,17.6 µM,> 46.4 µM,> 100 µM,> 100 µM,> 100 µM,> 100 µM,> 100 µM,> 100 µM,> 100 µM,65 µM,> 82.1 µM,> 100 µM,5.34 µM,> 100 µM,> 100 µM,> 100 µM
